Measurements reported in patent publication US10350206B2, “Benzyl substituted indazoles as BUB1 inhibitors” (Bayer Pharma Aktiengesellschaft, priority 2014, dated 2019).

How the values were obtained:
[1] = target: T1, catalytic domain of human Bub1 (amino acids 704-1085) (Homo sapiens, UniProt O43683); test: Bub1 kinase assay (TR-FRET); type: biochemical; details: 10 μM ATP, 60 min reaction, pH 7.5; read-out: Biological Assay 1: Bub1 kinase assay median IC50
T1 construct: catalytic domain of human Bub1 (amino acids 704-1085); His6 (N); made in house; host or cells: Hi5 insect cells
T1 sequence (O43683 704-1085): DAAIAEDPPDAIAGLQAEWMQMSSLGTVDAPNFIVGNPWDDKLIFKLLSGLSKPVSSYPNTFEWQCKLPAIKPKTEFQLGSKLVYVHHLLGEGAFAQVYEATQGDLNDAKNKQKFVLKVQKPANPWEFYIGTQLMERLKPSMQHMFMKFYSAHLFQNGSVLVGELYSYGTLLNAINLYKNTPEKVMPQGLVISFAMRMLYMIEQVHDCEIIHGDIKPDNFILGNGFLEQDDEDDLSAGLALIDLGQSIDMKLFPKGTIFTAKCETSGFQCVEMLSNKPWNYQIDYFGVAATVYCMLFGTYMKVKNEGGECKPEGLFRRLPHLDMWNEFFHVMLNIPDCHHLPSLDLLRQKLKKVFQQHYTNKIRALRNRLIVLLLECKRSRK
Procedure: To this end, 100-fold concentrated compound solutions (in DMSO) were previously prepared by serial dilution (1:3.4) of 2 mM stocks in a clear low volume 384-well source microtiter plate (Greiner Bio-One, Frickenhausen, Germany), from which 50 nL of compounds were transferred into a black low volume test microtiter plate from the same supplier. […] The resulting mixture (5 μL final volume) was incubated at 22° during 60 min., and the reaction was stopped by the addition of 5 μL of an aqueous EDTA-solution (50 mM EDTA, in 100 mM HEPES pH 7.5 and 0.2% (w/v) bovine serum albumin) which also contained the TR-FRET detection reagents (0.2 μM streptavidin-XL665 [Cisbio Bioassays, Codolet, France] and 1 nM anti-phosho-Serine antibody [Merck Millipore, cat. #35-001] and 0.4 nM LANCE EU-W1024 labeled anti-mouse IgG antibody [Perkin-Elmer, product no. AD0077, alternatively a Terbium-cryptate-labeled anti-mouse IgG antibody from Cisbio Bioassays can be used]). The stopped reaction mixture was further incubated 1 h at 22° C. in order to allow the formation of complexes between peptides and detection reagents. Subsequently, the amount of product was evaluated by measurement of the resonance energy transfer from the Eu-chelate-antibody complex recognizing the Phosphoserine residue to the streptavidin-XL665 bound to the biotin moiety of the peptide. […] IC50 values were calculated by fitting the normalized inhibition data to a 4-parameter logistic equation (Minimum, Maximum, IC50, Hill; Y=Max+(Min−Max)/(1+(X/IC50)Hill)).

[2] = test system: HeLa human cervical tumor cells; test: Proliferation assay (HeLa cell line); type: cell-based; details: 96 h, 4 days incubation, crystal violet, read-out: Biological Assay 2: Proliferation assay (HeLa cell line) median IC50
Procedure: Human tumour cells were originally obtained from the American Type Culture Collection (ATCC), the Deutsche Sammlung von Mikroorganismen und Zellkulturen (DSMZ, German Collection of Microorganisms and Cell Cultures), or Epo GmbH Berlin. Cultivated HeLa human cervical tumor cells (DSMZ ACC-57) were plated at a density of 3000 cells/well in a 96-well multititer plate in 200 μL of growth medium supplemented 10% fetal calf serum. After 24 hours, the cells of one plate (zero-point plate) were stained with crystal violet (see below), while the medium of the other plates was supplemented with the test substances in various concentrations (0 μM, as well as in the range of 0.001-10 μM; the final concentration of the solvent dimethyl sulfoxide was adjusted to 0.1%) using a Hewlett-Packard HP D300 Digital Dispenser. The cells were incubated for 4 days in the presence of test substances. […] After three washing cycles of the fixed cells with water, the plates were dried at room temperature. The cells were stained by adding 100 μL/measuring point of a 0.1% crystal violet solution (pH 3.0). After three washing cycles of the stained cells with water, the plates were dried at room temperature. The dye was dissolved by adding 100 μL/measuring point of a 10% acetic acid solution. […] The change of cell number, in percent, was calculated by normalization of the measured values to the absorption values of the zero-point plate (=0%) and the absorption of the untreated (0 μm) cells (=100%). The IC50 values were determined by means of a 4 parameter fit.

[3] = test system: HeLa human cervical tumor cells; test: Proliferation Assay (HeLa+Paclitaxel); type: cell-based; details: 3 nM paclitaxel, test substance 92 hours; read-out: Biological Assay 3: Proliferation Assay (HeLa + Paclitaxel) IC50
Procedure: Proliferation Assay (HeLa+Paclitaxel):
Cultivated HeLa human cervical tumor cells (DSMZ ACC-57) were plated at a density of 3000 cells/well in a 96-well multititer plate in 200 μL of growth medium supplemented 10% fetal calf serum. After 24 hours, the cells of one plate (zero-point plate) were stained with crystal violet (see below). The medium of the other plates was supplemented with 3 nM of paclitaxel (Sigma-Aldrich) and the cells were incubated at 37° C. After 4 hours the test substances were added in various concentrations (0 μM, as well as in the range of 0.001-10 μM; the final concentration of the solvent dimethyl sulfoxide was adjusted to 0.1%) using a Hewlett-Packard HP D300 Digital Dispenser. The cells were incubated for another 92 hours at 37° C. in the presence of test substances. […] After three washing cycles of the fixed cells with water, the plates were dried at room temperature. The cells were stained by adding 100 μL/measuring point of a 0.1% crystal violet solution (pH 3.0). After three washing cycles of the stained cells with water, the plates were dried at room temperature. The dye was dissolved by adding 100 μL/measuring point of a 10% acetic acid solution. […] The change of cell number, in percent, was calculated by normalization of the measured values to the absorption values of the zero-point plate (=0%) and the 5 absorption of the untreated (0 μm) cells (=100%). The IC50 values were determined by means of a 4 parameter fit.

[4] = test system: Bub1 kinase (histone 2A phosphorylation); test: H2A Formation-Assay (cell-based mechanistic assay, co-treatment with Nocodazole); details: 16 h, Nocodazole 1 μg/ml together with test compound for 16 h; read-out: Biological Assay 4.1: H2A Formation IC50
Procedure: Biological Assay 4.1: Formation-Assay
Cell-Based Mechanistic Assay: Changes of Phosphorylation Status of Histone 2A by Inhibition of Kinase Activity of Bub1
This assay determines the suppression of histone 2A phosphorylation by a Bub1 kinase inhibitor during co-treatment with Nocodazole. 25000 cells (cells were ordered from ATCC) were seeded in 96 well plate for 5 h at 37° C. Cells were treated with Nocodazole (1 μg/ml) and varying concentrations (between 3 nM and 10 μM) of test compounds for 16h. Cells were fixed (20 min, Fixing solution R&D), washed three times with PBS and blocked with Odyssey blocking buffer before incubating with the primary antibody against phosphorylated H2A (5 μg/ml ABIN482721) overnight at […]. After washing, secondary IRDye-labeled antibody mix with cell stains was added for 1h and washed again with PBS. Plates were scanned with LiCor Odyssey Infrared Imager CLx at 800 nm for P-H2A and at 700 nm for cell stains Draq5/Sapphire. The quotient of 800 nm and 700 nm for Nocodazole only treated cells was set as 100% and the quotient of 800 nm and 700 nm of untreated cells was set as 0%. […] The IC50 values were determined by means of a 4 parameter fit.
(§1) Histone H2A is an immediate intracellular substrate of Bub1 kinase. Determination of the phosphorylation status of Histone H2A provides a direct measure of the intracellular activity of Bub1 kinase.

[5] = test system: Bub1 kinase (pre-induced phospho-histone 2A); test: H2A Abrogation-Assay (cell-based mechanistic assay, pre-treatment with Nocodazole); details: Nocodazole 1 μg/ml 16 h, then test compound 1 h; read-out: Biological Assay 4.2: H2A Abrogation IC50
Procedure: Biological Assay 4.2: Abrogation-Assay
Cell-Based Mechanistic Assay: Changes of Phosphorylation Status of Pre-Induced Phospho-Histone 2A by Inhibition of Kinase Activity of Bub1
This assay measures the inhibition of histone 2A phosphorylation, which was induced by pre-treatment of the cells with Nocodazole, by a Bub1 kinase inhibitor. 25000 cells (cells were ordered from ATCC) were seeded in 96 well plate for 5 h at 37° C. Cells were treated with Nocodazole (1 μg/ml). After 16h varying concentrations (between 3 nM and 10 μM) of test compounds were added and the cells were incubated for another 1h. Cells were fixed (20 min, Fixing solution R&D), washed three times with PBS and blocked with Odyssey blocking buffer before incubating with the primary antibody against phosphorylated H2A (5 μg/ml ABIN482721) overnight at 2-8° C. After washing, secondary IRDye-labeled antibody mix with cell stains was added for 1h and washed again with PBS. Plates were scanned with LiCor Odyssey Infrared Imager CLx at 800 nm for P-H2A and at 700 nm for cell stains Draq5/Sapphire. The quotient of 800 nm and 700 nm for Nocodazole only treated cells was set as 100% and the quotient of 800 nm and 700 nm of untreated cells was set as 0%. […] The IC50 values were determined by means of a 4 parameter fit.
as §1

IC50 [1] [nM] | IC50 [2] [nM] | IC50 [3] [nM] | IC50 [4] [nM] | IC50 [5] [nM] | Structure (SMILES)
43 | > 10000 | 150 | 2.4 | 1.9 | COc1cnc(-c2nn(Cc3c(F)cc(OC[C@H](C)CO)cc3F)c3ccccc23)nc1Nc1ccnc(C)n1 [Example 2-3-4, (2R)-3-{3,5-difluoro-4-[(3-{5-methoxy-4-[(2-methylpyrimidin-4-yl)amino]pyrimidin-2-yl}-1H-indazol-1-yl)methyl]phenoxy}-2-methylpropan-1-ol]
58 | 3300 | 69 | 2 | > 1000 | COc1cnc(-c2nn(Cc3c(F)cc(OC[C@H](C)CO)cc3F)c3ccccc23)nc1Nc1cc(C)ncc1C [Example 2-3-5, (2R)-3-{4-[(3-{4-[(2,5-dimethylpyridin-4-yl)amino]-5-methoxypyrimidin-2-yl}-1H-indazol-1-yl)methyl]-3,5-difluorophenoxy}-2-methylpropan-1-ol]
19 | > 10000 | 120 | 53 | 0.27 | COc1cnc(-c2nn(Cc3c(F)cc(OC[C@H](C)CO)cc3F)c3ccccc23)nc1Nc1ccnc(NC(C)=O)c1 [Example 2-3-6, N-[4-({2-[1-(2,6-difluoro-4-{[(2R)-3-hydroxy-2-methylpropyl]oxy}benzyl)-1H-indazol-3-yl]-5-methoxypyrimidin-4-yl}amino)pyridin-2-yl]acetamide]
28 | 6900 | 110 | 63 | 0.31 | COc1cnccc1Nc1nc(-c2nn(Cc3c(F)cc(OC[C@H](C)CO)cc3F)c3ccccc23)ncc1OC [Example 2-3-7, (2R)-3-{3,5-difluoro-4-[(3-{5-methoxy-4-[(3-methoxypyridin-4-yl)amino]pyrimidin-2-yl}-1H-indazol-1-yl)methyl]phenoxy}-2-methylpropan-1-ol]
17 | 2600 | 160 | > 1000 | > 1000 | COc1cnc(-c2nn(Cc3c(F)cc(OCCCO)cc3F)c3ccccc23)nc1Nc1ccnc(C)c1 [Example 2-3-8, 3-{3,5-difluoro-4-[(3-{5-methoxy-4-[(2-methylpyridin-4-yl)amino]pyrimidin-2-yl}-1H-indazol-1-yl)methyl]phenoxy}propan-1-ol]
6.2 | 3200 | 430 | 200 | 5400 | COc1cnc(-c2nn(Cc3c(F)cc(OCCO)cc3F)c3ccccc23)nc1Nc1ccncc1 [Example 6-1-1, 2-[3,5-difluoro-4-({3-[5-methoxy-4-(pyridin-4-ylamino)pyrimidin-2-yl]-1H-indazol-1-yl}methyl)phenoxy]ethanol, reference compound]
52 | 2400 | 660 | 74 | 920 | CCOc1cc(F)c(Cn2nc(-c3ncc(OC)c(Nc4ccncc4)n3)c3ccccc32)c(F)c1 [Example 6-4-1, 2-[1-(4-ethoxy-2,6-difluorobenzyl)-1 H-indazol-3-yl]-5-methoxy-N-(pyridin-4-yl)pyrimidin-4-amine, reference compound]
